Test results from patent US8426408B2, “Pyrimidine inhibitors of kinases” (AbbVie Inc., priority 2009, dated 2013).
pKi: −log10 of the molar value.

Experiments:
Assay type in all cases: biochemical
[1] = molecular target: T1, Aurora A (Homo sapiens, UniProt O14965); test: Aurora A enzyme inhibition (time-resolved fluorescence, STK substrate-2); details: 1 mM ATP
T1 sequence (O14965 1-403): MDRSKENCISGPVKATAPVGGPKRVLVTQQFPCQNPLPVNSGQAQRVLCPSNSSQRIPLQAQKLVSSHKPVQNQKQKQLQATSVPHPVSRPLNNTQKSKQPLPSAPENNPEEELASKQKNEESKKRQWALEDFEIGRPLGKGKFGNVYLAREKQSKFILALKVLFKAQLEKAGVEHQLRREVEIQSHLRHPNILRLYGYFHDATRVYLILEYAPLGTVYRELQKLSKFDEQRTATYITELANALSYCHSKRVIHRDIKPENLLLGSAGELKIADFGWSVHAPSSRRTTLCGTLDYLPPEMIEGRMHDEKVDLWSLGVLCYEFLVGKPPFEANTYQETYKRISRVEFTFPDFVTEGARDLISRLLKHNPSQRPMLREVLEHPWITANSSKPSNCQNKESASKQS
Procedure, shortened: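 Phosphorylation of biotinylated STK substrate-2 at 1 mM ATP, 1 h, Hepes buffer pH 7.4 (MgCl2, sodium orthovanadate, Triton X-100). After EDTA quench, 665/615 nm time-resolved fluorescence ratio read via europium anti-phospho antibody and SA-XL665; IC50 from exponential fit versus inhibitor concentration.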

[2] = molecular target: T2, Aurora B (Homo sapiens, UniProt Q96GD4); test: Aurora B enzyme inhibition (time-resolved fluorescence, histone H3 peptide); details: 1 mM ATP
T2 construct: Active Aurora B enzyme (recombinant residues 1-344)
Procedure, shortened: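 IC50s came from an exponential fit of inhibition against inhibitor concentration, with phosphorylation read as the 665/615 nm time-resolved fluorescence ratio after EDTA stop using Eu-anti-phospho-H3 and SA-APC. The 1 h reaction used Aurora B 1-344 plus GST-INCENP, biotin-histone H3 1-21 peptide and 1 mM ATP in pH 7.4 HEPES buffer.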

[3] = molecular target: KDR (Homo sapiens, UniProt P35968); test: KDR HTRF in vitro kinase assay; set-up: purified enzyme (His6-KDR 789-1354, MW 63 kD); His6 (N); details: 1 mM ATP; read-out: KDR enzyme inhibition data (Ki)
Procedure, shortened: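 His6-KDR 789-1354 (7 ng/well) with 0.5 μM biotinylated peptide substrate and 1 mM ATP in HEPES pH 7.1, MgCl2/MnCl2, 60 min at room temperature. EDTA-quenched, detected by streptavidin-XL-665 plus Eu-kryptate anti-phosphotyrosine HTRF after 3 h; IC50 from 620/665 nm ratio.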

T2 sequence (Q96GD4 whole entry, the tested form may be a part): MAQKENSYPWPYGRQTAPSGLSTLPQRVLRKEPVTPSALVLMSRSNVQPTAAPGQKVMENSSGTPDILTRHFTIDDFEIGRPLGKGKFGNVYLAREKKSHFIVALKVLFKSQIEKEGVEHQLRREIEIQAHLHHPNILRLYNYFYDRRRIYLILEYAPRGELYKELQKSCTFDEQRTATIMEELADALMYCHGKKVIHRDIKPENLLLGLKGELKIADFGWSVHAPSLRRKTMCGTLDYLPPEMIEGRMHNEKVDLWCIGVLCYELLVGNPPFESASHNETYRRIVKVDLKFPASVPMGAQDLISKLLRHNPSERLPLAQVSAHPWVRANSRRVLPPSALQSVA
T2 sequence (Q9NQS7 826-918 partner limits assumed): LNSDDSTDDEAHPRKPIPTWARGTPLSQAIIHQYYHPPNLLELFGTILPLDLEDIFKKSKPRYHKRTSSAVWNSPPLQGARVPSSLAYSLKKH
Sequence of KDR (P35968 789-1354): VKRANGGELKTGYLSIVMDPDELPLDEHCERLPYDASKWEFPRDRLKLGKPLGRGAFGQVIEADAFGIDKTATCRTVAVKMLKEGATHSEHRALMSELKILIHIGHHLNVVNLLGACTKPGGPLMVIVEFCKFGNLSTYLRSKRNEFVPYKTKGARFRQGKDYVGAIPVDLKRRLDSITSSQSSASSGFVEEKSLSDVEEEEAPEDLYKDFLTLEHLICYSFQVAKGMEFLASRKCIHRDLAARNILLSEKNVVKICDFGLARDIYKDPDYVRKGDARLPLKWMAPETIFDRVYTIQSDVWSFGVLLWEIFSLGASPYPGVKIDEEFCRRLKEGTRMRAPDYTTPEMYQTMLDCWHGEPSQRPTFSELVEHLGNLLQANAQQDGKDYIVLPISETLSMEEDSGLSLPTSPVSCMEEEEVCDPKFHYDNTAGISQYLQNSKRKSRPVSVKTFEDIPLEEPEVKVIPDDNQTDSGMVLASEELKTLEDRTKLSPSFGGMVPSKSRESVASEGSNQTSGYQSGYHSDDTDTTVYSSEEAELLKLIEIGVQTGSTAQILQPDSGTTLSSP

Compound: Cn1cc(Nc2ncc(Cl)c(N[C@@H]3CC[C@@H]3C(N)=O)n2)cn1.Cn1cc(Nc2ncc(Cl)c(N[C@H]3CC[C@H]3C(N)=O)n2)cn1 (mixture of isomers) [Example 151, (1S,2R)-2-({5-chloro-2-[(1-methyl-1H-pyrazol-4-yl)amino]pyrimidin-4-yl}amino)cyclobutanecarboxamide and (1R,2S)-2-({5-chloro-2-[(1-methyl-1H-pyrazol-4-yl)amino]pyrimidin-4-yl}amino)cyclobutanecarboxamide]
- pKi [1]: > 7.00
- pKi [2]: > 7.00
- pKi [3]: > 7.00

Compound: Cn1cc(Nc2ncc(C(F)(F)F)c(N[C@@H]3[C@H](C(N)=O)[C@H]4C=C[C@@H]3C4)n2)cn1.Cn1cc(Nc2ncc(C(F)(F)F)c(N[C@H]3[C@@H](C(N)=O)[C@@H]4C=C[C@H]3C4)n2)cn1 (mixture of isomers) [Example 10, (1S,2S,3R,4R)-3-{[2-[(1-methyl-1H-pyrazol-4-yl)amino]-5-(trifluoromethyl)pyrimidin-4-yl]amino}bicyclo[2.2.1]hept-5-ene-2-carboxamide and (1R,2R,3S,4S)-3-{[2-[(1-methyl-1H-pyrazol-4-yl)amino]-5-(trifluoromethyl)pyrimidin-4-yl]amino}bicyclo[2.2.1]hept-5-ene-2-carboxamide]
- pKi [1]: > 7.00
- pKi [2]: > 7.00
- pKi [3]: > 7.00

Compound: Cc1c(Nc2ncc(Br)c(N[C@H]3[C@@H](C(N)=O)[C@@H]4C=C[C@H]3C4)n2)cnn1C [Example 170, (1S,2S,3R,4R)-3-({5-bromo-2-[(1,5-dimethyl-1H-pyrazol-4-yl)amino]pyrimidin-4-yl}amino)bicyclo[2.2.1]hept-5-ene-2-carboxamide]
- pKi [1]: > 7.00
- pKi [2]: > 7.00
- pKi [3]: > 7.00

Compound: CC(C)NC(=O)C1CCCC1Nc1nc(Nc2cnn(C3CCNCC3)c2)ncc1Cl (racemic) [Example 163, (1S,2R)-2-[(5-chloro-2-{[1-(piperidin-4-yl)-1H-pyrazol-4-yl]amino}pyrimidin-4-yl)amino]-N-isopropylcyclopentanecarboxamide and (1R,2S)-2-[(5-chloro-2-{[1-(piperidin-4-yl)-1H-pyrazol-4-yl]amino}pyrimidin-4-yl)amino]-N-isopropylcyclopentanecarboxamide]
- pKi [1]: > 7.00
- pKi [2]: > 7.00
- pKi [3]: 6.00 to 7.00

Compound: NC(=O)[C@@H]1[C@H](Nc2nc(Nc3cnn(-c4ccccc4)c3)ncc2Br)[C@H]2C=C[C@@H]1C2 [Example 173, (1S,2S,3R,4R)-3-({5-bromo-2-[(1-phenyl-1H-pyrazol-4-yl)amino]pyrimidin-4-yl}amino)bicyclo[2.2.1]hept-5-ene-2-carboxamide]
- pKi [1]: > 7.00
- pKi [2]: > 7.00
- pKi [3]: > 7.00

Compound: Cn1cc(Nc2ncc(C(F)(F)F)c(Nc3ccsc3C(N)=O)n2)cn1 [Example 150, 3-({2-[(1-methyl-1H-pyrazol-4-yl)amino]-5-(trifluoromethyl)pyrimidin-4-yl}amino)thiophene-2-carboxamide]
- pKi [1]: > 7.00
- pKi [2]: > 7.00
- pKi [3]: > 7.00

Compound: CC(C)CCn1cc(Nc2ncc(Cl)c(N[C@H]3[C@@H](C(N)=O)[C@@H]4C=C[C@H]3C4)n2)cn1 [Example 99, (1S,2S,3R,4R)-3-[(5-chloro-2-[1-(3-methylbutyl)-1H-pyrazol-4-yl]aminopyrimidin-4-yl)amino]bicyclo[2.2.1]hept-5-ene-2-carboxamide]
- pKi [1]: > 7.00
- pKi [2]: > 7.00
- pKi [3]: > 7.00

Compound: Cn1cc(Nc2ncc(C(F)(F)F)c(N[C@H]3[C@@H](C(N)=O)C[C@H]4C[C@@H]3C4(C)C)n2)cn1 [Example 167, (1R,2R,3S,5R)-6,6-dimethyl-2-({2-[(1-methyl-1H-pyrazol-4-yl)amino]-5-(trifluoromethyl)pyrimidin-4-yl}amino)bicyclo[3.1.1]heptane-3-carboxamide]
- pKi [1]: > 7.00
- pKi [2]: > 7.00
- pKi [3]: > 7.00
